Results published in PMC9405973, “Altered Conformational Landscape upon Sensing Guanine Nucleotides in a Disease Mutant of Elongation Factor-like 1 (EFL1) GTPase” (Biomolecules, 2022).

Experiments:
Efl1 R1086Q = molecular target: T1, Efl1 R1086Q (Saccharomyces cerevisiae, UniProt P53893, R1086Q); test: Isothermal titration calorimetry (ITC): binding of guanine nucleotides or Sdo1 to Efl1 R1086Q; settings: for Nconfres (number of residues changing conformation, absolute value) / ΔCpb: +Mg^2+; for Nconfres (number of residues changing conformation, absolute value): 30 °C; for ΔCpb: guanine nucleotide, from ΔHb at 25–35 °C
T1 construct: made in house; host or cells: Saccharomyces cerevisiae
Protocol: (§1) All calorimetric measurements were carried out using MicroCal^TM iTC200 System (GE Healthcare, Northampton, MA, USA) in a temperature range of 25–35 °C. Experiments were performed in a buffer consisting of 50 mM Tris-HCl (pH 8.0), 150 mM NaCl, 100 µM DTT, and 5% glycerol. In the titrations with Mg^2+-bound nucleotides, both the ligand and protein solutions contained 5 mM MgCl2. In the case of titrations with Mg^2+-free nucleotide, both the ligand and protein solutions were supplemented with 2 mM EDTA to sequester any residual trace of metal ions in solution. Protein samples and ligands were prepared in the exact same buffer prior to each titration. Protein concentration in the cell comprised 30–50 µM GTPase, while the ligand concentration in the syringe was 2–3 mM for GTP, MgGTP, GDP, and MgGDP. To ensure measuring the interaction of the complex Efl1 R1086Q•Sdo1 with the nucleotide, an eight-fold concentration excess of Sdo1 was used compared with that of the enzyme. […] The titration schedule consisted of 15–20 consecutive injections of the ligand with 5 min intervals between injections and a stirring rate of 700 rpm. The dilution heat of the ligand was obtained by adding the ligand to a buffer solution under identical conditions and with the same injection schedule used for the protein sample. All samples were degassed for 10 min prior to the experiment.
(§2) The binding isotherms obtained for the isolated GTPase in the presence of Mg(II) were analysed using a ternary model in which the protein can bind to the free nucleotide (G(D)TP) or that bound to one magnesium ion (MgG(D)TP); additionally, GTP may also exist in the form of Mg2GTP, which is not recognised by the protein. The derivation of this coupled-equilibria model can be reviewed in [6, 31]. The binding constant (Kb), the enthalpy change (∆Hb), and the stoichiometry (n) were obtained with the non-linear routines implemented in Origin 5.0 (OriginLab, Co., Northampton, MA, USA) using a one-binding-site model as described in [32, 33]. The heterotropic cooperativity for the binding of guanine nucleotides and Sdo1 to Efl1 R1086Q were calculated as previously described in [6, 32]. The cooperative effects of Mg(II) on the binding of guanine nucleotides to Efl1 R1086Q alone and bound to Sdo1 were calculated as follows:κ = KE-MG/KE-G κ = KES-MG/KES-G Δh = ΔHE-MG − ΔHE-G Δh = ΔHES-MG − ΔHES-G where subscripts E-MG and E-G stand for the association of the metal-bound and metal-free guanine nucleotide with mutant Efl1, respectively. Corresponding expressions applied to the heterotropic cooperativity of the binding of nucleotides to the preformed complex, Efl1•Sdo1 (ES).
(§3) The impact of Sdo1 on the binding of Efl1 R1086Q to guanine nucleotides in the presence of magnesium ions is contained in KES-MG and ΔHES-MG relative to the KE-S and ΔHE-S values; analogous ratios report the effects in the absence of Mg(II):κ = KES-MG/KE-S κ = KES-G/KE-G Δh = ΔHES-MG − ΔHE-S Δh = ΔHES-G − ΔHE-G
(§4) The corresponding cooperative entropy change was calculated as:TΔs = Δh − Δg = Δh + RTlnκ
(§5) The detailed methodology and equations to compute the changes in the accessible surface area (∆ASA) of the GTPase upon binding to nucleotides and the ∆S energetic-based parameters are reported in [6]. Briefly, the water-accessible areas (ASAs) were computed using programme NACCESS, while the changes in accessible surface area (ΔASA) upon the formation of each GTPase–nucleotide complex were estimated considering the difference between the complex and the sum of the free interacting partners. The calculated polar (ΔASAp) and apolar (ΔASAap) area changes were subsequently used to estimate the free molecular partners. […]

Efl1 R1086Q•Sdo1 = molecular target: T2, Efl1 R1086Q•Sdo1 (Saccharomyces cerevisiae, UniProt P53893, R1086Q); test: ITC: binding of guanine nucleotides to pre-formed complex Efl1 R1086Q•Sdo1
T2 construct: made in house; host or cells: Efl1: Saccharomyces cerevisiae; Sdo1: Escherichia coli C41
Protocol: as §1, §2, §3, §4, §5

Efl1 R1086Q P151L = molecular target: T3, Efl1 R1086Q P151L (Saccharomyces cerevisiae, UniProt P53893, P151L/R1086Q); test: ITC: binding of GTP to double mutant Efl1 R1086Q P151L; settings: +Mg^2+, from ΔHb at 25–35 °C
T3 construct: made in house; host or cells: Saccharomyces cerevisiae

wild-type Efl1 = settings: guanine nucleotide, +Mg^2+; cited from earlier work
[1] = Enzyme kinetics of GTP hydrolysis (PNP coupled assay, Michaelis–Menten); assay type: biochemical, Saccharomyces cerevisiae; settings: enzyme in complex with Sdo1 (25 µM Sdo1)
Protocol: Finally, we measured the enzyme kinetics of mutant Efl1 R1086Q as an isolated enzyme and bound to Sdo1 using an enzymatic coupled assay with a purine nucleoside phosphorylase (PNP) enzyme. This analysis was extended to another disease mutation (EFL1 M882K) also located in domain IV of the GTPase using the equivalent yeast variant, Efl1 L910K [17]. The Km and kcat kinetic parameters were calculated using non-linear regression assuming a Michaelis–Menten model (Supplementary Table S1). […] The catalytic constant for mutant R1086Q and the wild-type enzyme consisted of 0.67 min^−1, and it was 0.58 min^−1 for mutant Efl1 L910K. […] In line with the proposed role of Sdo1 as a guanine exchange factor of Efl1, previous results have shown that the interaction of wild-type Efl1 with Sdo1 impacted its Km for GTP, decreasing its value 2–3-fold. The Km values for the complexes formed between Sdo1 and Efl1 mutants decreased by half with respect to their cognate-free counterpart and differed from each other. […] The measured Km value comprises all the microscopic rate constants of the individual reactions occurring in the enzyme, which include the binding to the substrate and product and the corresponding conformational changes.
Hydrolysis of GTP was measured using the Enzchek Phosphate Assay kit (Molecular Probes) as described by Webb. Standard reactions consisted of 100 µL containing 6 µM of Efl1 R1086Q and Efl1 L910K, 0.3 mM MESG, 1.0 U purine nucleoside phosphorylase (PNP) and the indicated amounts of GTP. Measurements done in the presence of effector protein contained 25 µM of Sdo1.
The reaction buffer consisted of 50 mM HEPES -KOH pH 7.5, 150 mM NaCl, 5 mM MgCl2.
Reactions were initiated and the GTPase was added after 3 min. Time courses were followed by recording the change in absorbance at 360 nm in a Cary 60 UV -Vis spectrophotometer (Agilent Technologies). Background absorbance was recorded prior to the addition of the GTPase and subtracted from the sample signals. The slope of the measured time courses corresponded to the GTP hydrolysis rate. The concentration of releas ed phosphate was estimated using a molar absorption coefficient at 360 nm of 14,386 M -1 cm-1 previously described in [2]. Data were analysed by nonlinear regression to the M ichaelis-Menten equation with the program Origin Version 5.0 (OriginLab, Co., Northampton, MA). […]
M HEPES-KOH pH 7.4, 2.5 mM magnesium acetate, 50 mM sucrose, 2 mM DTT, 0.1 mM PMSF, 0.1 mM benzamidine, 8 mM putrescine, 1 mM spermidine. […]
Dilution at the end of each titration was no longer than 2.5% of the initial volume. Data were corrected for the background signal by subtracting the fluorescence of the same ligand concentration without the GTPase in the reaction mixture.
Maximum emission at 440 nm was replotted as a function of nucleotide concentration and analysed

T3 sequence (P53893 whole entry P151L/R1086Q): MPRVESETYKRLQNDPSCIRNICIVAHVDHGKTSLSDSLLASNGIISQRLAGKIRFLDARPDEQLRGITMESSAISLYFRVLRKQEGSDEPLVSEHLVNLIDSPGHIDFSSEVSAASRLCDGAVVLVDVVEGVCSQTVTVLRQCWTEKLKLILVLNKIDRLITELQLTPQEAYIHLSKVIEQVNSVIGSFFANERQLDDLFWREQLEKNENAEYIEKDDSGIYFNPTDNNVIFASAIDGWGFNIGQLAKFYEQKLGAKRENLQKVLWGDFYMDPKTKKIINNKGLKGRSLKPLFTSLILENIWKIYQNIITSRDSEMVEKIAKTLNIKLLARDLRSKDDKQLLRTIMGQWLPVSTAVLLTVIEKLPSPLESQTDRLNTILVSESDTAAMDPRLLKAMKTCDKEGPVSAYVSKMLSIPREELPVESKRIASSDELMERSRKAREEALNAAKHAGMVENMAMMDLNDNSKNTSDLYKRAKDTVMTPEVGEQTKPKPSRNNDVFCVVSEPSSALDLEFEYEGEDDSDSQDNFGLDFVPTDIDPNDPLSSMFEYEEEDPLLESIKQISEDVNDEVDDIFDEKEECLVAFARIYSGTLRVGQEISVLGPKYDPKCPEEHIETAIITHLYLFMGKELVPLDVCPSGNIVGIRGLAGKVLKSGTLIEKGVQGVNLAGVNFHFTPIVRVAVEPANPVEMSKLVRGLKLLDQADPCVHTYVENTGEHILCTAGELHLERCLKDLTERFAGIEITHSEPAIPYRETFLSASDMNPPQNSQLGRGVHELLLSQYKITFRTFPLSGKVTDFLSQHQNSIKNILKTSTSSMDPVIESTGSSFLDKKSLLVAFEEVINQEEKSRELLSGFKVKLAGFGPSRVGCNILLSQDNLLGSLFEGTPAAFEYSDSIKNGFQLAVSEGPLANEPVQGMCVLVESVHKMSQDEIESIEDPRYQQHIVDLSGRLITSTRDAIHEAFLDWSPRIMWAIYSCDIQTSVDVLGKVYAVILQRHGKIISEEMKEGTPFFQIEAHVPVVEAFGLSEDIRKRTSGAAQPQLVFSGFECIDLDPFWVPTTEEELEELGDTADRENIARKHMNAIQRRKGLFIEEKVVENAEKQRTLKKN

Molecule	increase in binding enthalpy as temperature increased (Efl1 R1086Q; 25 °C to 35 °C)	Nconfres (number of residues changing conformation, absolute value) (Efl1 R1086Q)	ΔCpb (Efl1 R1086Q) [cal mol^−1 K^−1]	surface buried by the conformational change (Efl1 R1086Q; refers to Table 3, 30 °C)	ΔΔCpb (Efl1 R1086Q•Sdo1 vs isolated enzyme) (Efl1 R1086Q•Sdo1; presence of magnesium ions) [cal mol^−1 K^−1]	fold increase in affinity from 25 °C to 35 °C (Efl1 R1086Q; 35 °C vs 25 °C) [fold]	ΔCpb (Efl1 R1086Q P151L) [cal mol^−1 K^−1]	Nconfres (number of residues changing conformation, absolute value) (Efl1 R1086Q•Sdo1; +Mg^2+, 30 °C)	ΔCpb (Efl1 R1086Q•Sdo1; +Mg^2+, from ΔHb at 25–35 °C) [cal mol^−1 K^−1]	additional residues modified with respect to the isolated enzyme (Efl1 R1086Q•Sdo1; presence of magnesium ions)	ΔCpb (wild-type Efl1) [cal mol^−1 K^−1]	kcat [1] [s⁻¹]
MgGDP	~ 3 kcal mol^−1	21	−270	~ 1000 Å	−45	–	–	–	–	–	–	–
MgGTP	–	3	10	–	−410	1.2	−220	36	−400	40	−560	–
Efl1 R1086Q • Sdo1: binary complex of mutant GTPase Efl1 R1086Q and effector Sdo1 (protein, UniProt P53893 1-1110; Q07953 1-250, looked up, variant R1086Q, binary complex) Ribosome assembly protein 1: MPRVESETYKRLQNDPSCIRNICIVAHVDHGKTSLSDSLLASNGIISQRLAGKIRFLDARPDEQLRGITMESSAISLYFRVLRKQEGSDEPLVSEHLVNLIDSPGHIDFSSEVSAASRLCDGAVVLVDVVEGVCSQTVTVLRQCWTEKLKPILVLNKIDRLITELQLTPQEAYIHLSKVIEQVNSVIGSFFANERQLDDLFWREQLEKNENAEYIEKDDSGIYFNPTDNNVIFASAIDGWGFNIGQLAKFYEQKLGAKRENLQKVLWGDFYMDPKTKKIINNKGLKGRSLKPLFTSLILENIWKIYQNIITSRDSEMVEKIAKTLNIKLLARDLRSKDDKQLLRTIMGQWLPVSTAVLLTVIEKLPSPLESQTDRLNTILVSESDTAAMDPRLLKAMKTCDKEGPVSAYVSKMLSIPREELPVESKRIASSDELMERSRKAREEALNAAKHAGMVENMAMMDLNDNSKNTSDLYKRAKDTVMTPEVGEQTKPKPSRNNDVFCVVSEPSSALDLEFEYEGEDDSDSQDNFGLDFVPTDIDPNDPLSSMFEYEEEDPLLESIKQISEDVNDEVDDIFDEKEECLVAFARIYSGTLRVGQEISVLGPKYDPKCPEEHIETAIITHLYLFMGKELVPLDVCPSGNIVGIRGLAGKVLKSGTLIEKGVQGVNLAGVNFHFTPIVRVAVEPANPVEMSKLVRGLKLLDQADPCVHTYVENTGEHILCTAGELHLERCLKDLTERFAGIEITHSEPAIPYRETFLSASDMNPPQNSQLGRGVHELLLSQYKITFRTFPLSGKVTDFLSQHQNSIKNILKTSTSSMDPVIESTGSSFLDKKSLLVAFEEVINQEEKSRELLSGFKVKLAGFGPSRVGCNILLSQDNLLGSLFEGTPAAFEYSDSIKNGFQLAVSEGPLANEPVQGMCVLVESVHKMSQDEIESIEDPRYQQHIVDLSGRLITSTRDAIHEAFLDWSPRIMWAIYSCDIQTSVDVLGKVYAVILQRHGKIISEEMKEGTPFFQIEAHVPVVEAFGLSEDIRKRTSGAAQPQLVFSGFECIDLDPFWVPTTEEELEELGDTADRENIARKHMNAIQRRKGLFIEEKVVENAEKQRTLKKN Ribosome maturation protein …: MPINQPSGQIKLTNVSLVRLKKARKRFEVACYQNKVQDYRKGIEKDLDEVLQIHQVFMNVSKGLVANKEDLQKCFGTTNVDDVIEEIMHKGEIQLSEKERQLMLNKVNNEMLTIVSAKCINPVSKKRYPPTMIHKALQELKFSPVINKPAKLQALEAIKLLVSKQIIPIVRAKMKVKVAISEPSRQPELIEKISKLIASSPGESTKPELDPWTCTGLIDPVNYRDLMTLCDKKGTVQVLDMAVIDNTTHN	–	–	–	–	–	–	–	–	–	–	–	0.0112
